Several values for one entry are separate records, joined by “and”; a condition that tells them apart may be missing. Equal entries are not always repeated. Entries after “also recorded” stand apart in the source; their conditions may differ. Where two headings read alike, the source gives them in different places.
Experiments:
Type in all cases: cell-based
[1] = biological target: T1, constitutively active EP2 S86A (Homo sapiens, UniProt P43116, S86A); assay: GloSensor cAMP assay, inhibition of constitutive activity
T1 construct: The full-length EP2 or EP4 was cloned into the pcDNA3.1 vector; FLAG (N); expressed in transfected cells; host or cells: AD293 cells
Experimental: (§1) The full-length EP2 or EP4 was cloned into the pcDNA3.1 vector (Invitrogen), incorporating an N-terminal FLAG tag. AD293 cells were seeded in six-well plates containing DMEM supplemented with 10% dialyzed FBS 1 day prior to transfection. Following overnight growth, cells were transfected with a 1:1 ratio of receptor construct and GloSensor22F cAMP biosensor (Promega) plasmids.
(§2) Twenty-four hours post-transfection, the cells were transferred to CO2-independent media containing 2% GloSensor cAMP Reagent (Promega) and distributed into 384-well assay plates at a density of 4000 cells per well in 10 μL. […] The plates were then incubated at 37 °C for an additional hour before luminescence measurements were taken using an EnVision plate reader.
(§3) Data analysis was performed using GraphPad Prism software v8.0.1. A nonlinear regression analysis, employing a sigmoidal dose–response model, was conducted to determine the Emax values and half-maximum inhibitory concentrations (IC50) for each compound tested.

[2] = biological target: T2, constitutively active EP4 V320A (Homo sapiens, UniProt P35408, V320A); assay: as above
T2 construct: The full-length EP2 or EP4 was cloned into the pcDNA3.1 vector (Invitrogen), incorporating an N-terminal FLAG tag; expressed in transfected cells; host or cells: AD293
Experimental: as §1, §2, §3

[3] = biological target: T3, constitutively active EP2 W186A (Homo sapiens, UniProt P43116, W186A); assay: as above
T3 construct: The full-length EP2 or EP4 was cloned into the pcDNA3.1 vector; FLAG (N); expressed in transfected cells; host or cells: AD293 cells
Experimental: as §1, §2, §3

[4] = biological target: T4, constitutively active EP4 WT (Homo sapiens, UniProt P35408); assay: as above
T4 construct: The full-length EP2 or EP4 was cloned into the pcDNA3.1 vector (Invitrogen), incorporating an N-terminal FLAG tag; expressed in transfected cells; host or cells: AD293
Experimental: as §1, §2, §3

EP2 WT = EP2 WT (Homo sapiens, UniProt P43116); assay: GloSensor cAMP assay, antagonism of PGE2-induced cAMP; design: The full-length EP2 or EP4 was cloned into the pcDNA3.1 vector; FLAG (N); expressed in transfected cells; host or cells: AD293 cells
Experimental: as §1, §2, §3

[5] = no PGE2, pIC50 mutant - pIC50 WT, mean

Sequence of EP2 WT (P43116 whole entry): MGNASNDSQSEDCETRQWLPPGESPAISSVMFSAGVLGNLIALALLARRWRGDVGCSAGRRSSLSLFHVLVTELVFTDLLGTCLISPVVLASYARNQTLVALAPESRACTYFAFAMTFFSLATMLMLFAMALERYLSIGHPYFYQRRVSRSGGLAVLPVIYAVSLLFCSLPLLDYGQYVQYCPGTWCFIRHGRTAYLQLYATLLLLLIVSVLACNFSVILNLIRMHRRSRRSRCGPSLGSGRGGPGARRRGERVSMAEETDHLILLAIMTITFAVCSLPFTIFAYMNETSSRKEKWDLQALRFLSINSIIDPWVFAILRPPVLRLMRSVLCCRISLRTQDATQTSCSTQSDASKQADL
T3 sequence (P43116 whole entry W186A): as the sequence (P43116 whole entry) above, with W186A counted along it
T2 sequence (P35408 whole entry V320A): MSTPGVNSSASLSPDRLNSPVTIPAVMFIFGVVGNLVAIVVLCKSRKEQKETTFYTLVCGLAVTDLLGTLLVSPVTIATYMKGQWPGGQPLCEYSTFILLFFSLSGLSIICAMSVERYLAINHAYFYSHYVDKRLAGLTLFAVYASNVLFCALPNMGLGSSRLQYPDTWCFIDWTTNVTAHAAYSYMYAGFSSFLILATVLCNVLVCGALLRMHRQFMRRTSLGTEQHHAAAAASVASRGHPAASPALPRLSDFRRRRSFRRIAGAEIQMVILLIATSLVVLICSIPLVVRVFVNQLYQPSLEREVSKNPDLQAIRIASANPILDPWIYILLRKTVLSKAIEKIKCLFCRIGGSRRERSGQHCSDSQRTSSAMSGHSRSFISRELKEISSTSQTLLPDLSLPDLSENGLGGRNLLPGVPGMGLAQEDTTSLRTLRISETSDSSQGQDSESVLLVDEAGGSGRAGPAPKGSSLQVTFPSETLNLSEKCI
T4 sequence (P35408 whole entry): as the sequence (P35408 whole entry V320A) above, with A320V counted along it
T1 sequence (P43116 whole entry S86A): as the sequence (P43116 whole entry) above, with S86A counted along it

CCc1nnc(NS(=O)(=O)c2ccc(NC(=S)NC(=O)/C=C/c3ccc(F)cc3)cc2)s1 [TG6-129]
TG6-129 cAMP activity (∆pIC50 from EP2 WT) ([1]; S86A, single experiments 1st-3rd): -0.744 and -0.540 and -0.726
ΔpIC50 [1, 5]: -0.67 ± 0.07
IC50 [2]: 6.76 µM
remaining activity at 100 µM ([2]; 1 h, TG6-129 log([M]) -4.00, EP4-V320A, read-out: % cAMP activity (normalized to WT)): 8.24%
remaining activity at 20 µM ([2]; 1 h, TG6-129 log([M]) -4.70, EP4-V320A, read-out: % cAMP activity (normalized to WT)): 16%
remaining activity at […] ([2]; 1 h, TG6-129 log([M]) -5.40, EP4-V320A, read-out: % cAMP activity (normalized to WT)): 41.7%
remaining activity at […] ([2]; 1 h, TG6-129 log([M]) -6.10, EP4-V320A, read-out: % cAMP activity (normalized to WT)): 57.4%
remaining activity at […] ([2]; 1 h, TG6-129 log([M]) -6.80, EP4-V320A, read-out: % cAMP activity (normalized to WT)): 59.5%
remaining activity at 0.0324 µM ([2]; 1 h, TG6-129 log([M]) -7.49, EP4-V320A, read-out: % cAMP activity (normalized to WT)): 49.7%
remaining activity at 0.00646 µM ([2]; 1 h, TG6-129 log([M]) -8.19, EP4-V320A, read-out: % cAMP activity (normalized to WT)): 54.3%
remaining activity at 0.00129 µM ([2]; 1 h, TG6-129 log([M]) -8.89, EP4-V320A, read-out: % cAMP activity (normalized to WT)): 60.2%
TG6-129 cAMP activity (∆pIC50 from EP4 WT), Mean ([2]; V320A, Mean): -0.014
TG6-129 cAMP activity (∆pIC50 from EP4 WT) ([2]; V320A, single experiments 1st-3rd): 0.016 and -0.105 and 0.048
ΔpIC50 [2, 5]: -0.01 ± 0.04
IC50 [3]: 3.63 µM
remaining activity at 0.1 µM ([3]; 1 h, TG6-129 log([M]) -7, EP2-W186A, read-out: % cAMP activity (normalized to WT)): 91.6%
remaining activity at 0.0001 µM ([3]; 1 h, TG6-129 log([M]) -10, EP2-W186A, read-out: % cAMP activity (normalized to WT)): 92.4%
remaining activity at 10 pM ([3]; 1 h, TG6-129 log([M]) -11, EP2-W186A, read-out: % cAMP activity (normalized to WT)): 99.9%
remaining activity at 1 pM ([3]; 1 h, TG6-129 log([M]) -12, EP2-W186A, read-out: % cAMP activity (normalized to WT)): 97.8%
TG6-129 cAMP activity (∆pIC50 from EP2 WT), Mean ([3]; W186A, Mean): -1.465
ΔpIC50 [3, 5]: -1.47 ± 0.16
IC50 [4]: 5.01 µM
remaining activity at 100 µM ([4]; 1 h, TG6-129 log([M]) -4.00, EP4-WT, read-out: % cAMP activity (normalized to WT)): 7.78%
remaining activity at […] ([4]; 1 h, TG6-129 log([M]) -4.70, EP4-WT, read-out: % cAMP activity (normalized to WT)): 22.1%
remaining activity at […] ([4]; 1 h, TG6-129 log([M]) -5.40, EP4-WT, read-out: % cAMP activity (normalized to WT)): 65.6%
remaining activity at […] ([4]; 1 h, TG6-129 log([M]) -6.10, EP4-WT, read-out: % cAMP activity (normalized to WT)): 88.8%
remaining activity at 0.1585 µM ([4]; 1 h, TG6-129 log([M]) -6.80, EP4-WT, read-out: % cAMP activity (normalized to WT)): 91.8%
remaining activity at 0.03236 µM ([4]; 1 h, TG6-129 log([M]) -7.49, EP4-WT, read-out: % cAMP activity (normalized to WT)): 96%
remaining activity at 0.006457 µM ([4]; 1 h, TG6-129 log([M]) -8.19, EP4-WT, read-out: % cAMP activity (normalized to WT)): 103%
remaining activity at 0.001288 µM ([4]; 1 h, TG6-129 log([M]) -8.89, EP4-WT, read-out: % cAMP activity (normalized to WT)): 106%
TG6-129 cAMP activity (∆pIC50 from EP4 WT) ([4]; WT, single experiments 1st-3rd): -0.065 and 0.051 and 0.101
IC50 (EP2 WT): 81.3 nM
remaining activity at 0.1 µM (EP2 WT; 1 h, TG6-129 log([M]) -7, read-out: % cAMP activity (normalized to WT)): 40.1%
remaining activity at 0.01 µM (EP2 WT; 1 h, TG6-129 log([M]) -8, read-out: % cAMP activity (normalized to WT)): 94.7%
remaining activity at 0.001 µM (EP2 WT; 1 h, TG6-129 log([M]) -9, read-out: % cAMP activity (normalized to WT)): 104%
remaining activity at 0.0001 µM (EP2 WT; 1 h, TG6-129 log([M]) -10, read-out: % cAMP activity (normalized to WT)): 94.6%
remaining activity at 10 pM (EP2 WT; 1 h, TG6-129 log([M]) -11, read-out: % cAMP activity (normalized to WT)): 102%
remaining activity at 1 pM (EP2 WT; 1 h, TG6-129 log([M]) -12, read-out: % cAMP activity (normalized to WT)): 94.1%
remaining activity at 1 µM (EP2 WT; 1 h, ligand log([M]) -6, single experiments 1st-3rd, Fig. S7B, read-out: % cAMP activity (normalized to WT)): 3.11%
remaining activity at 0.1 µM (EP2 WT; 1 h, ligand log([M]) -7, single experiments 1st-3rd, Fig. S7B, read-out: % cAMP activity (normalized to WT)): 42.8%
remaining activity at 0.01 µM (EP2 WT; 1 h, ligand log([M]) -8, single experiments 1st-3rd, Fig. S7B, read-out: % cAMP activity (normalized to WT)): 80.3%
remaining activity at 0.001 µM (EP2 WT; 1 h, ligand log([M]) -9, single experiments 1st-3rd, Fig. S7B, read-out: % cAMP activity (normalized to WT)): 95.4%
remaining activity at 0.0001 µM (EP2 WT; 1 h, ligand log([M]) -10, single experiments 1st-3rd, Fig. S7B, read-out: % cAMP activity (normalized to WT)): 93.9%
remaining activity at 10 pM (EP2 WT; 1 h, ligand log([M]) -11, single experiments 1st-3rd, Fig. S7B, read-out: % cAMP activity (normalized to WT)): 103%
remaining activity at 1 pM (EP2 WT; 1 h, ligand log([M]) -12, single experiments 1st-3rd, Fig. S7B, read-out: % cAMP activity (normalized to WT)): 110%
remaining activity at 0.1 µM (EP2 WT; 1 h, read-out: % cAMP activity on EP2 (normalized to PF-04418948), ligand log([M]) -7, single experiments 1st-3rd, Fig. S1A): 46%
remaining activity at 0.01 µM (EP2 WT; 1 h, read-out: % cAMP activity on EP2 (normalized to PF-04418948), ligand log([M]) -8, single experiments 1st-3rd, Fig. S1A): 84.5%
remaining activity at 0.001 µM (EP2 WT; 1 h, read-out: % cAMP activity on EP2 (normalized to PF-04418948), ligand log([M]) -9, single experiments 1st-3rd, Fig. S1A): 100%
remaining activity at 0.0001 µM (EP2 WT; 1 h, read-out: % cAMP activity on EP2 (normalized to PF-04418948), ligand log([M]) -10, single experiments 1st-3rd, Fig. S1A): 98.6%
remaining activity at 10 pM (EP2 WT; 1 h, read-out: % cAMP activity on EP2 (normalized to PF-04418948), ligand log([M]) -11, single experiments 1st-3rd, Fig. S1A): 108%
remaining activity at 1 pM (EP2 WT; 1 h, read-out: % cAMP activity on EP2 (normalized to PF-04418948), ligand log([M]) -12, single experiments 1st-3rd, Fig. S1A): 115%
cAMP activity (∆pIC50 from EP2 WT) (EP2 WT; TG6-129, WT, single experiments 1st-3rd): 0.065 and 0.064 and -0.014
antagonism profile EP2 versus EP4 (in words) (EP2 WT; cAMP accumulation assay upon PGE2 stimulation, Appendix Fig. S1A): dual antagonist that preferentially antagonizes EP2; also recorded: preferential potency toward EP2
cAMP activity (∆pIC50 from EP2 WT) (EP2 WT; single experiments 1st-3rd, Appendix Fig. S7A): 0.111 and -0.076 and -0.052

Source: article PMC12669672, “Structural insights into selective and dual antagonism of EP2 and EP4 prostaglandin receptors” (The EMBO Journal, 2025)
